Measurements from patent US20230181751A1, “FORMULATION OF PURE DIMETHOXY CURCUMIN-HUMAN SERUM ALBUMIN AND A PROCESS FOR THE PREPARATION THEREOF” (SREE CHITRA TIRUNAL INSTITUTE FOR MEDICAL SCIENCES AND …, priority 2020, published 2023).
Converted amounts (≈) assume the structure as drawn. Like-named read-outs stand apart in the source and are kept apart here.

Legend:
[1] = cited from earlier work
[2] = cited from earlier work; remark: listed apart in the source
solubility = assay type: physicochemical; conditions: water, before conjugation
[3] = storage stability of DMCHSA solution (UV and FTIR spectra); assay type: physicochemical
Procedure: The liquid stability of the product was analysed at 24 h interval for 48 h or 72 h. The UV spectra recorded at different storage period are shown
FTIR spectra are shown to substantiate the chemical degradation after 48 h of storage of DMCHSA solution.
The lyophilized samples were used for respective periods as prepared for liquid stability, were lyophilized and recorded FTIR spectrum.
Thus, liquid stability of DMCHSA stored for […] is evident.

[4] = test system: Fibroblast cell line (L929); assay: MTT cytotoxicity assay, DMCHSA versus free DMC; assay type: cell-based, mouse; conditions: similar molar concentrations, 24 h-48 h
Procedure: Cancer cell lines (A549,MCF-7), Fibroblast cell line (L929), and primary cells (ECs and CCs) were cultured in 96-well plates containing 100 µl medium, kept this plate in CO2 incubator (5% CO2) at 37° C. for 24 h. DMCHSA solution was freshly prepared by dissolving the lyophilized conjugate in DMEM F12 medium and added (0.05 mg/ml, 0.1 mg/ml, 0.2 mg/ml, 0.4 mg/ml) in 96 well plate for 24 h. […] In all cultures standard MTT assay quantified viable cells after treating with DMCHSA/free DMC. Briefly, commercial MTT (0.5 mg/ml) reagent was dissolved in medium. This solution was filtered through a 0.22 µm filter and stored at 2 - 8° C. After removal of 100 µl medium, MTT dye solution was added and the plates were incubated at 37° C. for 4 h in a humidified 5% CO2 incubator, followed by 100 µl of DMSO added to each well, and mixed thoroughly to dissolve the dye crystals.
The absorbance was measured using an ELISA plate reader at 570 nm. High optical density readings corresponded to a high intensity of dye colour. The fractional absorbance was calculated by the formula: % Cell survival/PR = Mean absorbance in test × 100 Mean absorbance in control

solubility (solubility): 20 µM (≈ 7.37 µg/mL)
UV-Vis spectral stability [3]: degrading free curcumin in 2h
Compound: COc1cc(/C=C/C(=O)CC(=O)/C=C/c2ccc(O)c(OC)c2)ccc1O [DMC, (1E,6E)-1,7-bis(4-hydroxy-3-methoxyphenyl)hepta-1,6-dienne-3,5-dione]
half-life of DMC ([1]; in the presence of protein): 1 to 2 h
half-life of DMC ([1]; physiological pH, without protein): a few minutes
solubility in acetone, DMSO and ethyl ether [2]: very soluble
solubility in ethyl alcohol, glacial acetic acid and propylene glycol [2]: soluble
solubility in water, petroleum ether and benzene [2]: poorly soluble
cytotoxicity on fibroblasts, DMCHSA compared with free DMC [4]: less cytotoxic
